Literature values, collected in PMC7044277 (Nature Communications, 2020).
Entries after “also recorded” stand apart in the source; their conditions may differ. Where two headings read alike, the source gives them in different places.

Biological target: DRD2 F1103.28A (Homo sapiens, UniProt P14416, F110A)
Conditions: cited from earlier work

DRD2 F1103.28A, sequence (P14416 whole entry F110A): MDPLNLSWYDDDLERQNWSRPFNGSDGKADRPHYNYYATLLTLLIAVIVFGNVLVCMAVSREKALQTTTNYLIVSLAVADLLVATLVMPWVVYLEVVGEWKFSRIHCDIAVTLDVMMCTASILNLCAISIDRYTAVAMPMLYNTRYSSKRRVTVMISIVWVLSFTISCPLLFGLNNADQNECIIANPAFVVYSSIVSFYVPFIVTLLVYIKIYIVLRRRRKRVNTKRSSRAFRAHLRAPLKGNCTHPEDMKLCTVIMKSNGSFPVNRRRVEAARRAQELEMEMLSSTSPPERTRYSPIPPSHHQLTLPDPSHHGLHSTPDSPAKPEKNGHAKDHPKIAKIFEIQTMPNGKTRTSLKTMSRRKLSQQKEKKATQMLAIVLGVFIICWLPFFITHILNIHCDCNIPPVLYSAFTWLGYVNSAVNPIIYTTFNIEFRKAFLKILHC

| Structure (SMILES) | effect of Phe110^3.28Ala mutation on binding | effect of Phe110^3.28Ala mutation on binding (previous published studies) |
| --- | --- | --- |
| CNc1cc(OC)c(C(=O)NC2CCN(Cc3ccccc3)C2C)cc1Cl (centres unmarked) [nemonapride] | did not enhance the binding; also recorded: didn’t enhance the binding | – |
| Cc1nc2n(c(=O)c1CCN1CCC(c3noc4cc(F)ccc34)CC1)CCCC2 [risperidone] | – | did not enhance the binding; also recorded: didn’t enhance the binding |
